Laboratory results as given in patent US20240325369A1 (priority 2021, published 2024).
Several values for one entry are separate records, joined by “and”; a condition that tells them apart may be missing. Identical values can stand only once. Like-named read-outs stand apart in the source and are kept apart here.

Test system: metastatic castration-resistant prostate cancer (mCRPC) with DNA-repair anomalies
Conditions: for CTC Response (CTC = 0 at week 8), % of subjects / CTC Response (CTC = 0 at week 8), number of subjects: ITT with baseline CTC >0 (N=131)
Protocol: The planned sample size was approximately 120 subjects with measurable disease who were biomarker-positive (approximately 75 subjects with DNA repair anomalies in BRCA [BRCA1 or BRCA2] and approximately 45 subjects with biallelic DNA-repair anomalies in non-BRCA [ATM, FANCA, PALB2, CHEK2, BRIP1, or HDAC2]).
Efficacy objectives were evaluated for subjects meeting the biomarker selection criteria described in the protocol. All subjects were monitored for safety during the study period, and up to 30 days after the last dose of study drug. Treatment continued until disease progression, unacceptable toxicity, death, or termination of the study by the sponsor.
Diagnosis and Main Criteria for Inclusion: The target population consisted of male subjects over the age of 18 years with mCRPC and DNA-repair anomalies (biallelic mutations and germline pathogenic mutations only for BRCA1 or BRCA2 mutations) who had received at least 1 prior taxane-based chemotherapy and at least 1 prior AR targeted therapy (second-generation or later). Subjects were asked to provide a tumor tissue sample (archival or recently collected, if available), and a blood sample for analysis of DNA-repair anomalies using a sponsor-validated assay.
Criteria for Evaluation: Efficacy assessments included chest, abdomen, and pelvis CT or MRI scans and whole-body bone scans (^99mTc) to evaluate objective response and disease progression.
The primary endpoint was ORR and summarized for the BRCA analysis set along with the 95% 2-sided exact CI. In addition, the counts and percentage of subjects in each response category (CR. PR, etc.) were tabulated. ORR in non-BRCA subjects was analyzed in the same way.
Descriptive summaries of CTC response were generated for BRCA and non-BRCA analysis sets, measurable and non-measurable subgroups and tabulated with its 2-sided 95% exact CI. Waterfall plots of percent change in CTC were also presented, showing the percentage change in CTC counts from baseline to 8 weeks, as well as maximal CTC count declines. All time to event secondary endpoints were evaluated using Kaplan-Meier method for BRCA and non-BRCA analysis sets. Median time to event and the corresponding 95% CI were provided. Descriptive summaries were provided for BRCA and non-BRCA analysis sets.
Time to degradation was determined using the following meaningful change threshold values: FACT-P Total (10-point reduction from baseline), EQ-5D-5L Index (0.09-point reduction from baseline). EQ-5D-5L VAS (10-point reduction from baseline), and BPI SF worst pain intensity item (30% reduction from baseline).
The primary endpoint was ORR, defined as the proportion of subjects with BRCA DNA-repair anomalies and measurable disease whose best response was either CR or PR as defined by RECIST 1.1 (Eisenhauer et al 2009) and who had no evidence of bone progression according to the PCWG3 criteria (Scher et al 2016).
ORR final analysis was performed approximately 6 months from Cycle 1 Day 1 of the last subject with a BRCA DNA-repair anomaly and measurable disease. Objective response as determined by investigator assessment was considered as the primary analysis.
Subjects who discontinued the study without a response assessment were considered as non-responders in the analysis. The objective response rate was calculated and its 2-sided 95% exact CI presented. In addition, the counts and percentage of subjects in each response category (CR, PR, etc.) were tabulated.
The following analyses of CTC response were performed for BRCA and non-BRCA analysis sets, measurable and non-measurable subgroups: • Descriptive summaries • CTC response rate was tabulated with its 2-sided 95% exact CI
All time to event secondary endpoints were evaluated using Kaplan-Meier method for BRCA and non-BRCA analysis sets. Median time to event and the corresponding 95% CI were provided. Descriptive summaries were provided for BRCA and non-BRCA analysis sets.

[1] = BRCA, ITT (N=142), Kaplan-Meier, 300 mg once daily
[2] = BRCA, 300 mg once daily, listed as niraparib
[3] = BRCA, measurable ITT (N=76), 300 mg once daily
[4] = BRCA, measurable ITT responders (N=26), 300 mg once daily
[5] = BRCA, measurable ITT responders (N=26), Kaplan-Meier, 300 mg once daily
[6] = BRCA, patients with baseline CTC ≥5 (n=117), 300 mg once daily
[7] = NON-BRCA, ITT (N=81), 300 mg once daily
[8] = NON-BRCA, measurable ITT responders (N=5), 300 mg once daily
[9] = NON-BRCA, measurable ITT responders (N=5), Kaplan-Meier, 300 mg once daily
[10] = Non-BRCA (n = 81), 300 mg once daily
[11] = Non-BRCA, patients with baseline CTC ≥5 (n=60), 300 mg once daily

NC(=O)c1cccc2cn(-c3ccc([C@@H]4CCCNC4)cc3)nc12 [Niraparib, 2-[4-[(3S)-piperidin-3-yl]phenyl]-2H-indazole-7-carboxamide]
Time to PSA progression: time to event, Median [1]: 5.13 months
Time to radiographic progression: time to event, 25th percentile [1]: 4.76 months
Time to radiographic progression: time to event, 75th percentile [1]: 11.63 months
Time to symptomatic skeletal event (SSE): time to event, Median [1]: 13.80 months
Time to symptomatic skeletal event: time to event, 25th percentile [1]: 7.52 months
rPFS: time to event, 25th percentile [1]: 4.44 months
rPFS: time to event, 75th percentile [1]: 11.56 months
CTC Response (CTC = 0 at week 8), % of subjects (BRCA, 300 mg once daily): (23.7%)
CTC Response (CTC = 0 at week 8), number of subjects (BRCA, 300 mg once daily): 31
CTC Response (CTC = 0 at week 8), % of subjects [2]: (23.7) %
CTC Response (CTC = 0 at week 8), number of subjects [2]: 31/131
DOR, median (range) (BRCA, as printed in Table 13, 300 mg once daily): 6.28 mo
Best Overall Response: Complete Response (CR), % of subjects [3]: 2.6%
Best Overall Response: Complete Response (CR), number of subjects [3]: 2
Best Overall Response: Not Available (NA), % of subjects [3]: 9.2%
Best Overall Response: Not Available (NA), number of subjects [3]: 7
Best Overall Response: Partial Response (PR), % of subjects [3]: 31.6%
Best Overall Response: Partial Response (PR), number of subjects [3]: 24
Best Overall Response: Progressive Disease (PD), % of subjects [3]: 21.1%
Best Overall Response: Progressive Disease (PD), number of subjects [3]: 16
Best Overall Response: Stable Disease (SD), % of subjects [3]: 35.5%
Best Overall Response: Stable Disease (SD), number of subjects [3]: 27
ORR (objective response rate, RECIST 1.1, no bone progression per PCWG3), % of subjects [3]: 34.2%
ORR (objective response rate, RECIST 1.1, no bone progression per PCWG3), number of subjects [3]: 26
Objective response confirmed: Complete Response (CR), % of subjects [3]: 2.6%
Objective response confirmed: Complete Response (CR), number of subjects [3]: 2
Objective response confirmed: Partial Response (PR), % of subjects [3]: 31.6%
Objective response confirmed: Partial Response (PR), number of subjects [3]: 24
Duration of objective response: 6-month event-free rate [4]: 0.464
Duration of objective response: 12-month event-free rate [4]: 0.000
Duration of objective response: 18-month event-free rate [4]: 0.000
Duration of objective response: 24-month event-free rate [4]: 0.000
Duration of objective response: Censored, % of subjects [4]: (23.1%)
Duration of objective response: Censored, number of subjects [4]: 6
Duration of objective response: Event, % of subjects [4]: (76.9%)
Duration of objective response: Event, number of subjects [4]: 20
Duration of objective response: time to event, 25th percentile [5]: 3.75 months
Duration of objective response: time to event, 75th percentile [5]: 7.20 months
Duration of objective response: time to event, Median [5]: 5.55 months
CTC conversion (CTC count ≥5/7.5 mL blood at baseline to <5/7.5 mL blood at nadir), % of subjects [6]: 47.0%
CTC conversion (CTC count ≥5/7.5 mL blood at baseline to <5/7.5 mL blood at nadir), number of subjects [6]: 55
Time to PSA progression: 12-month event-free rate [7]: 0.000
Time to PSA progression: 18-month event-free rate [7]: 0.000
Duration of objective response: 6-month event-free rate [8]: 0.500
Duration of objective response: 18-month event-free rate [8]: 0.000
Duration of objective response: 24-month event-free rate [8]: 0.000
Duration of objective response: Censored, % of subjects [8]: (20.0%)
Duration of objective response: Censored, number of subjects [8]: 1
Duration of objective response: Event, % of subjects [8]: (80.0%)
Duration of objective response: Event, number of subjects [8]: 4
Duration of objective response: time to event, 25th percentile [9]: 2.96 months
Duration of objective response: time to event, 75th percentile [9]: 6.95 months
Duration of objective response: time to event, Median [9]: 5.16 months
CRR (composite response rate), % of subjects [10]: 14.8%
CRR (composite response rate), number of subjects [10]: 12
PSA50 (≥50% decline in prostate-specific antigen), % of subjects [10]: 4.9%
PSA50 (≥50% decline in prostate-specific antigen), number of subjects [10]: 4
CTC conversion (CTC count ≥5/7.5 mL blood at baseline to <5/7.5 mL blood at nadir), % of subjects [11]: 15.0%
CTC conversion (CTC count ≥5/7.5 mL blood at baseline to <5/7.5 mL blood at nadir), number of subjects [11]: 9
Best Overall Response: Complete Response (CR), number of subjects (in vivo): 0
Best Overall Response: Not Available (NA), % of subjects (in vivo): (17.0%)
Best Overall Response: Not Available (NA), number of subjects (in vivo): 8
Best Overall Response: Partial Response (PR), % of subjects (in vivo): (10.6%)
Best Overall Response: Partial Response (PR), number of subjects (in vivo): 5
Best Overall Response: Progressive Disease (PD), % of subjects (in vivo): (31.9%)
Best Overall Response: Progressive Disease (PD), number of subjects (in vivo): 15
Best Overall Response: Stable Disease (SD), % of subjects (in vivo): (40.4%)
Best Overall Response: Stable Disease (SD), number of subjects (in vivo): 19
Duration of objective response: 12-month event-free rate (in vivo): 0.000
Objective response confirmed: Complete Response (CR), number of subjects (in vivo): 0
Objective response confirmed: Partial Response (PR), % of subjects (in vivo): 5 (10.6%)
Objective response confirmed: Partial Response (PR), number of subjects (in vivo): 5 (10.6%)
Overall survival: 6-month event-free rate (in vivo): 0.841 and 0.709 and 0.793
Overall survival: 12-month event-free rate (in vivo): 0.564 and 0.413 and 0.508
Overall survival: 18-month event-free rate (in vivo): 0.334 and 0.198 and 0.278
Overall survival: 24-month event-free rate (in vivo): 0.152 and 0.111 and 0.136
Overall survival: time to event, 25th percentile (in vivo): 8.31 months and 4.86 months and 7.16 months
Overall survival: time to event, 75th percentile (in vivo): 19.52 months and 16.53 months and 19.42 months
Time to PSA progression: 6-month event-free rate (in vivo): 0.144
Time to PSA progression: 24-month event-free rate (in vivo): 0.000
Time to PSA progression: Censored, % of subjects (in vivo): (51.9%)
Time to PSA progression: Censored, number of subjects (in vivo): 57 and 42
Time to PSA progression: Event, % of subjects (in vivo): (48.1%)
Time to PSA progression: time to event, 25th percentile (in vivo): 2.79 months
Time to PSA progression: time to event, 75th percentile (in vivo): 4.63 months and 8.31 months
Time to PSA progression: time to event, Median (in vivo): 3.65 months
Time to radiographic progression: 6-month event-free rate (in vivo): 0.299
Time to radiographic progression: Censored, % of subjects (in vivo): (34.6%)
Time to radiographic progression: Censored, number of subjects (in vivo): 28
Time to radiographic progression: Event, number of subjects (in vivo): 53
Time to radiographic progression: time to event, 25th percentile (in vivo): 1.87 months
Time to radiographic progression: time to event, 75th percentile (in vivo): 8.11 months
Time to symptomatic skeletal event (SSE): time to event, Median (in vivo): 10.35 months
Time to symptomatic skeletal event: 6-month event-free rate (in vivo): 0.792
Time to symptomatic skeletal event: 12-month event-free rate (in vivo): 0.379
Time to symptomatic skeletal event: 18-month event-free rate (in vivo): 0.190
Time to symptomatic skeletal event: Censored, % of subjects (in vivo): (76.5%)
Time to symptomatic skeletal event: Censored, number of subjects (in vivo): 62
Time to symptomatic skeletal event: time to event, 25th percentile (in vivo): 6.51 months
Time to symptomatic skeletal event: time to event, 75th percentile (in vivo): 15.54 months
rPFS: 6-month event-free rate (in vivo): 0.289
rPFS: Censored, % of subjects (in vivo): (29.6%)
rPFS: Censored, number of subjects (in vivo): 24
rPFS: Event, % of subjects (in vivo): (70.4%)
rPFS: Event, number of subjects (in vivo): 57
rPFS: time to event, 25th percentile (in vivo): 1.87 months
rPFS: time to event, 75th percentile (in vivo): 6.47 months
